Results from PubChem BioAssay (NCI).
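Interpolation was linear, between the two tested concentrations surrounding the appropriate level; five concentrations were tested over 48 hours in 96-well plates. Here, GI50 denotes the concentration required for 50% inhibition of growth. TGI: total growth inhibition.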

Legend:
Experiment in all cases: growth of human tumour cells (NCI), 48 h
[1] = system: 786-0 renal
[2] = system: CCRF-CEM leukemia
[3] = system: MOLT-4 leukemia
[4] = system: RXF 393 renal
[5] = system: SK-MEL-5 melanoma
[6] = system: UACC-257 melanoma
[7] = system: UACC-62 melanoma
[8] = system: A498 renal
[9] = system: MCF7 breast
[10] = system: NCI-H460 lung

| SMILES | TGI [1] [µM] | TGI [2] [µM] | TGI [3] [µM] | TGI [4] [µM] | TGI [5] [µM] | TGI [6] [µM] | TGI [7] [µM] | GI50 [1] [µM] | GI50 [8] [µM] | TGI [8] [µM] | GI50 [9] [µM] | TGI [9] [µM] | GI50 [10] [µM] | TGI [10] [µM] | GI50 [4] [µM] | GI50 [5] [µM] | GI50 [6] [µM] | GI50 [7] [µM] | GI50 [2] [µM] | GI50 [3] [µM] |
| --- | --- | --- | --- | --- | --- | --- | --- | --- | --- | --- | --- | --- | --- | --- | --- | --- | --- | --- | --- | --- |
| COC(=O)C1(C)CCc2c(OC)ccc(OC)c2C1=O (stereo unspecified) | > 100 | > 100 | > 100 | > 100 | > 100 | > 100 | > 100 |  |  |  |  |  |  |  |  |  |  |  |  |  |
| O=C(/C=C\c1cccc([N+](=O)[O-])c1)/C=C/c1cccc([N+](=O)[O-])c1 | 22.1 |  |  | 6.57 | > 100 | > 100 | > 100 | 5.05 | > 100 | > 100 | 0.655 | 6.68 | 6.61 | > 100 | 2.55 | 61.3 | 21.4 | 14.8 |  |  |
| C/C(=C\c1ccc2ccccc2c1)[N+](=O)[O-] | 3.83 | 5.65 | 6.48 | 3.06 | 3.87 | 2.9 | 3.26 | 1.99 | 8.63 | 20.9 |  |  | 1.88 | 3.83 | 1.65 | 1.79 | 1.56 | 1.76 | 1.89 | 2.61 |
| Cc1cccc(C)c1NC(=O)/C(=N/NC(N)=S)C(C)C(=O)c1ccc(Cl)cc1 (stereo unspecified) | > 100 | > 100 | > 100 |  | > 100 | > 100 | > 100 |  |  | > 100 |  |  |  | > 100 |  |  |  |  |  |  |
| O=C1/C(=C/c2ccccc2[N+](=O)[O-])Cc2ccccc21 | 6.9 |  | 9.04 | 2.99 | 14 | 4.35 | 3.38 | 2.57 | 2.17 | 5.36 | 1.38 | 11.8 | 1.15 | 13.1 | 1.45 | 3.11 | 1.83 | 1.64 |  | 2.92 |
| CC(=O)OC12C=C(C)C(C(C)C1)C1C(=O)N(CCN3CCOCC3)C(=O)C12 (stereo unspecified) | > 100 | > 100 | > 100 |  | > 100 | > 100 | > 100 | > 100 | > 100 | > 100 |  |  |  |  |  | > 100 | > 100 | > 100 | > 100 | > 100 |
| CCOC(=O)C1C(=S)NC(=O)C1C#N (stereo unspecified) | > 100 | > 100 | > 100 | > 100 | > 100 | > 100 | > 100 |  |  |  |  |  |  | > 100 |  |  |  |  |  |  |
| N#CC1(C(N)=O)C(c2ccc(Cl)cc2)CC(=O)CC1c1ccc(Cl)cc1 (stereo unspecified) | 30.8 | 63.5 | 54.3 |  | 31.1 | 36 | 27.2 | 17.1 | 14.7 | 27.8 | 17.4 | 31.7 | 17.4 | 33.4 |  | 17.4 | 17.5 | 13.6 | 21.5 | 17.1 |
| COc1cc2c(cc1C1COc3cc4occc4cc3C1=O)OCO2 (stereo unspecified) | > 100 | > 100 | > 100 | > 100 | > 100 | > 100 | > 100 |  |  | > 100 |  | > 100 |  |  |  |  |  |  |  |  |
| NNC(=O)CS(=O)(=O)Nc1ncccn1 | > 100 |  |  | > 100 | > 100 | > 100 | > 100 |  |  | > 100 |  | > 100 |  | > 100 |  |  |  |  |  |  |
| O=C(NC1CCCCC1)NS(=O)(=O)c1ccc2c(c1)CCC2 | > 100 | > 100 | > 100 | > 100 |  | > 100 | > 100 |  |  |  |  |  |  |  |  |  |  |  |  |  |
| Cc1c(/C=N/N=C/c2[nH]c(C(=O)OC(C)(C)C)c(C)c2C)[nH]c(C(=O)OC(C)(C)C)c1C | > 100 | > 100 | > 100 | > 100 | > 100 | > 100 | > 100 |  |  | > 100 |  |  |  | > 100 |  |  |  |  |  |  |
| CCCCCCCCCCCCCCCCCC1=NCCN1CCOC1=C(Cl)C(=O)c2ccccc2C1=O | 4.09 | 7.17 | 3.8 | 3.2 | 6.75 | 3.3 | 4.99 | 2.19 | 3.92 | 14.7 |  |  | 3.33 | 16.1 | 1.79 | 2.36 | 1.83 | 2.12 | 0.527 | 0.747 |
| O=C1c2cccnc2C(=O)c2c1c(C(=O)NCCCN1CCCCC1)c1ccccn21 | 8.06 | > 100 | > 100 | 3.4 | 1.35 | 2.18 | 2.51 | 1.18 | 1.54 | 3.23 |  |  | 0.299 | 1.46 | 1.28 | 0.36 | 0.813 | 0.624 | 3.26 | 0.867 |
| O=C1C(=C([O-])c2ccccc2)C(=O)c2ccccc21.O=C1C(=C([O-])c2ccccc2)C(=O)c2ccccc21.[Fe+2] | > 100 | > 100 | > 100 |  | > 100 | > 100 |  | > 100 | > 100 | > 100 |  |  |  |  |  | > 100 | > 100 |  | 80.3 | > 100 |
| CC#CCC1CCC(OCC)=CC1=O (stereo unspecified) | > 100 | > 100 | > 100 | > 100 | > 100 | > 100 | > 100 |  |  |  |  |  |  | > 100 |  |  |  |  |  |  |
| CO/N=C(\COc1ccc2c(c1)[nH]c1ccccc12)c1ccc(F)cc1 | > 100 | 53.9 |  | > 100 | > 100 | > 100 | > 100 | 16.8 |  |  | > 100 | > 100 | > 100 | > 100 | 27.6 | > 100 | 48.7 | 95.9 | 22.6 |  |
